Measured values as given in patent publication US20090143318A1, “DEGRANULATION INHIBITOR” (Tropical Technology Center Ltd., priority 2006, published 2009).
Where a name gives a salt, the structure may show the parent alone. Read-outs that look alike come from different tables or passages of the source.

System: rat basophilic leukemia cells (RBL-2H3)
Test: Degranulation inhibitory activity: hexosaminidase release-inhibitory activity test
Format: cell-based
Conditions: for IC50 value (inhibition of release of hexosaminidase) / IC50: IgE-sensitized RBL-2H3 cells, DNP-BSA antigen-induced degranulation; for Activity compared with the positive control ketotifen fumarate: statement in words, hexosaminidase release, RBL-2H3
Method: With regard to the measurement of degranulation inhibitory activity, a test for hexosaminidase release-inhibitory activity was carried out by referring to Non-Patent Document 1 and Non-Patent Document 2 (Kataoka M., Takagaki Y., Shoyakugaku Zasshi, 46(1), 25-29, 1992). Firstly, rat basophilic leukemia cells (RBL-2H3) were made into 5×10^5 cells/mL and seeded on a 96-well plate and anti-DNP-BSA mouse IgE antibody was added thereto so as to make its final concentration 0.29 μg/mL and incubated with 5% CO2 at 37° C. overnight in an incubator to sensitize the cells. Then the cells were washed with a phosphate-buffered physiological saline solution twice and 130 μL of a releasing mixture (comprising 116.9 mM of NaCl, 5.4 mM of KCl, 0.8 mM of MgSO4, 2.0 mM of CaCl2, 5.6 mM of glucose, 0.1% of bovine serum albumin and 25 mM of HEPES) was added thereto.
Then, Compounds (A) and (C) obtained in the invention were first dissolved in 25% ethanol, and then Compound (A) was diluted with 1% ethanol to achieve the final concentration in 7 serial dilutions in steps of from 1 μg/mL to 5 ng/mL; and Compound (C) was diluted with 1% ethanol to achieve the final concentration by 7 serial dilutions in steps of from 10 μg/mL to 50 ng/mL. Compound (B) was first dissolved in water, and then diluted with 1% ethanol to achieve the final concentration by 7 serial dilutions in steps of from 50 μg/mL to 50 ng/mL. Compound (D) was diluted with 4% ethanol-20 mM phosphate buffer to achieve the final concentration by 4 serial dilutions in steps of 2.6 μg/mL to 165 ng/mL. 10 μL portion samples of all concentrations of Compounds (A), (B), (C) and (D) were added to the cells, respectively, and allowed to stand at 37° C. under 5% CO2 in an incubator for 10 minutes. Then 10 μL of an antigen DNP-BSA (2 μg/mL) was added, the mixture was allowed to stand in an incubator for 1 hour to induce degranulation, and centrifuged to collect the supernatant. 15 μL of a 5 mM hexosaminidase substrate solution (p-nitrophenyl-β-D-glucosaminide) was added to 45 μL of the supernatant liquid, the mixture was made to react at 37° C. for 3 hours and 180 μL of a solution for stopping the reaction (0.1M NaHCO3/Na2CO3; pH 10.0) was added thereto. After completion of the reaction, absorbance at 415 nm was measured and the hexosaminidase release-inhibitory activity was calculated by the following formula. Meanwhile, a positive control (200 μM of ketotifen fumarate) and a negative control corresponding to the final solvent concentration for the test substance were prepared.
Hexosaminidase release-inhibitory Activity(%)=[1−(S−B/C−b)]×100
S: absorbance of the test substance upon addition of cells
B: absorbance upon addition of the test substance in the absence of the cells
C: absorbance of the negative control
b: absorbance in the absence of cells

[1] = molar concentration, read-out: IC50 value (inhibition of release of hexosaminidase), molar value in brackets
[2] = Rattus norvegicus, mass concentration, read-out: IC50 value (inhibition of release of hexosaminidase)
[3] = Rattus norvegicus, molar concentration, read-out: IC50 value (inhibition of release of hexosaminidase), molar value in brackets

| SMILES | IC50 value (inhibition of release of hexosaminidase) (mass concentration) [µg/mL] | IC50 [1] [µM] | Activity compared with the positive control ketotifen fumarate | IC50 [2] [µg/mL] | IC50 [3] [µM] |
| --- | --- | --- | --- | --- | --- |
| O=c1oc2c3c(cc4c(=O)oc5c(O)c(OC6O[C@H](CO)[C@@H](O)[C@H](O)[C@H]6O)cc1c5c24)OCO3 (stereo partly shown) [Compound (A), 3,4-dioxoloellagic acid 4′-glucoside] | 0.00663 | 0.014 |  |  |  |
| COc1c(O)cc2c(=O)oc3c(O)c(OC4O[C@H](CO)[C@@H](O)[C@H](O)[C@H]4O)cc4c(=O)oc1c2c34 (stereo partly shown) [Compound (B), 3-O-methylellagic acid 4′-glucoside] | 14.83 | 31 | higher activity |  |  |
| COc1cc2c(=O)oc3c(OC)c(O)cc4c(=O)oc(c1OC)c2c34 [Compound (C), 3,3′,4-tri-O-methylellagic acid] |  |  | higher activity | 4.47 | 13 |
| O=c1oc2c3c(cc4c(=O)oc5c(O)c(O)cc1c5c24)OCO3 [Compound (D), 3,4-dioxoloellagic acid] |  |  | higher activity | 1.07 | 3 |
| CN1CCC(=C2c3ccccc3CC(=O)c3sccc32)CC1 [Ketotifen fumarate, ketotifen fumarate, reference compound] |  |  |  | 71.8 | 169 |
